Several values for one entry are separate records, joined by “and”; a condition that tells them apart may be missing. Identical values can stand only once. Like-named read-outs stand apart in the source and are kept apart here. Where only a bound is given, the exact number is not on record here.

Series [1] deals with Coronavirus (MHV-3 Strain). The format is cell-based, Coronavirus MHV-3 Strain genus Betacoronavirus.
Series [2] is described as follows: Solubility in water when preparing calibration standards. The format is physicochemical. The procedure: The calibration curve used the following standards: Standard #1 - 99.5% chlorhexidine (CAS 55-56-1) from Sigma-Aldrich, Standard #2 - 20% solution of chlorhexidine digluconate in solution (CAS 18472-51-0). Samples with both standards were prepared in deionized water. […] With Standard #2 it was possible to obtain a good reproducibility of the areas; therefore, it was decided to perform the calibration curve with standard #2.

For `N=C(NCCCCCCNC(=N)NC(=N)Nc1ccc(Cl)cc1)NC(=N)Nc1ccc(Cl)cc1` [5% Chlorhexidine, 1,1'-hexamethylene-bis(5-(p-chlorophenyl)-biguanide)], the “time after which activity was lost” value in series [1] (concentration of 5%) was ≤ 10 min. Moreover, the results for the “Infectivity Reduction (Virus Titer 10^8/mL)” value in series [1] (contact time 1 minute), in series [1] (contact time 5 minutes) and in series [1] (contact time 10 minutes) were 10^4, 10^4 and 10^5, respectively. For the same compound, the “Coronavirus (MHV-3 Strain) inactivation” value is 99.99% in series [1] (contact time 1 minute, listed as Chlorhexidine 5.0%); 99.99% in series [1] (contact time 5 minutes, listed as Chlorhexidine 5.0%); 99.9% and 99.99% in series [1] (contact time 10 minutes); 99.9% in series [1] (contact time 10 minutes, listed as Chlorhexidine 5.0%); “Not effective” in series [1] (contact time 1 hour); “Not effective” in series [1] (contact time 4 hours). Besides, in series [1] (contact time Immediate), the “Coronavirus (MHV-3 Strain) inactivation” value is “Not Effective”.
`[H]/N=C(\N/C(=N/[H])NCCCCCCNC(=N)NC(=N)Nc1ccc(Cl)cc1)Nc1ccc(Cl)cc1` [Chlorhexidine, 1,1'-hexamethylene-bis(5-(p-chlorophenyl)-biguanide)]: the solubility in water entry in series [2] is “very low solubility in water”.
For `N=C(NCCCCCCNC(=N)NC(=N)Nc1ccc(Cl)cc1)NC(=N)Nc1ccc(Cl)cc1.O=C(O)[C@H](O)[C@@H](O)[C@H](O)[C@H](O)CO.O=C(O)[C@H](O)[C@@H](O)[C@H](O)[C@H](O)CO` [chlorhexidine digluconate], the solubility in water entry in series [2] (deionized water) is given as “no solubility problems”.
